# In patent publication US20260226417A1, “METHOD FOR INHIBITING AGING OF STEM CELLS” (ENCELL CO., LTD, priority 2023, published 2026):
# Experiments:
# [1] = test system: replicative senescence model of human umbilical cord-derived mesenchymal stem cells (P18); test: Screening of gut microbiota-derived metabolite library for senescence control (primary HTS and secondary cell viability screening); type: cell-based
# Source text: Example 2. Screening of gut microbiota-derived metabolites for senescence control of human umbilical cord-derived mesenchymal stem cells In order to determine differences in metabolite reactivity depending on the senescence status of human umbilical cord-derived mesenchymal stem cells, a library of 485 gut microbiota-derived metabolites was used to select candidates that inhibit the proliferation or cause death of replicative senescent stem cells.
# Thereby, 13 candidates showing low viability only in the replicative senescence model (P18) without affecting the viability of the control cells (P5) were selected by primary screening, and the experimental group was treated with the metabolite at 25 μM, 50 μM, 100 μM, 200 μM, 300 μM, 400 μM, and 500 μM to determine the optimal concentration of the metabolite by secondary screening, analyzing the senescence control effect at a total of 7 metabolite concentrations.
# [2] = test system: mesenchymal stem cell-positive markers CD44, CD73, CD90, CD105, CD166 and negative markers CD11b, CD14, CD19, CD34, CD45, HLA-DR; test: Stemness analysis by FACS in replicative senescence model (P18); type: cell-based, human; conditions: 160 μM, 3 days
# Method: Example 6. Comparative analysis of stemness of gut microbiota-derived metabolite for senescence control A replicative senescence model (P18) was treated with nervonic acid (160 μM) to assess the effect thereof on stemness and adipogenesis.
# The replicative senescence model (P18) was treated with nervonic acid (160 μM), and the expression changes of the mesenchymal stem cell-positive markers CD44, CD73, CD90, CD105, and CD166, as well as the mesenchymal stem cell-negative markers CD11b, CD14, CD19, CD34, CD45, and HLA-DR were confirmed through FACS.
# Specifically, 3.6×10^6 cells treated with nervonic acid (160 μM) for 3 days were centrifuged, suspended in 1.2 ml of FACS buffer (PBS 98%+FBS 2%), and allowed to stand at room temperature for 30 minutes. Thereafter, 100 ul thereof was dispensed into each of 11 1.5 ml tubes (3×10^5 cells per tube), and a predetermined amount of antibody was added to each tube, followed by reaction at room temperature for 20 minutes in a light-blocking state. After washing by adding 200 μl of FACS buffer, centrifugation was performed at room temperature at 300 g for 5 minutes, the supernatant was removed, and the cells were suspended in 500 μl of FACS buffer and then transferred to a FACS tube for analysis.
# [3] = test system: replicative senescence model of human umbilical cord-derived mesenchymal stem cells (P18); test: Cytotoxicity by CCK-8 assay, replicative senescence model (P18); type: cell-based; conditions: 160 μM, P18, CCK-8
# [4] = test system: human bone marrow-derived mesenchymal stem cells (BM-MSCs/passage 15); test: β-galactosidase staining, senescent BM-MSCs; type: cell-based; conditions: BM-MSCs passage 15, 3 days
# Method: Human bone marrow-derived mesenchymal stem cells (BM-MSCs) were purchased from Cambrex (Lonza, #PT-2501).
# (§1) Each of the obtained mesenchymal stem cells was subcultured in aMEM (a-modified Minimum Essential Media) containing 10% fetal bovine serum (FBS) and 0.5% gentamicin (10 mg/ml).
# (§2) The replicative senescence models of human adipose-derived mesenchymal stem cells (AD-MSCs/passage 18), human bone marrow-derived mesenchymal stem cells (BM-MSCs/passage 15), human umbilical cord blood-derived mesenchymal stem cells (UCB-MSCs/passage 16), and human placenta-derived mesenchymal stem cells (PL-MSCs/passage 18) established as described above were treated with nervonic acid for 3 days, and β-galactosidase staining was performed to observe the extent of senescence.
# [5] = test system: control cells (P5), human umbilical cord-derived mesenchymal stem cells; test: Cytotoxicity by CCK-8 assay, control cells (P5); type: cell-based; conditions: 160 μM
# [6] = test system: human umbilical cord blood-derived mesenchymal stem cells (UCB-MSCs/passage 16); test: β-galactosidase staining, senescent UCB-MSCs; type: cell-based; conditions: UCB-MSCs passage 16, 3 days
# Source text: Human placenta-derived mesenchymal stem cells (pl-mscs) Were Isolated From Placentas Separated according to the previously reported method of Choi et al. (PLOS ONE, (2017) 12 (2): e0172642), umbilical cord blood-derived mesenchymal stem cells (UCB-MSCs) were isolated from the umbilical cord blood separated according to the method of Kim et al. (FEBS Letters, (2010) 584:3601-3608), and adipose tissue-derived mesenchymal stem cells (AD-MSCs) were isolated from adipose tissue separated according to the previously reported method of Palumbo et al. (Int. J. Mol. Sci. (2018) 19:1987).
# as §1, §2
# [7] = test system: control cells (P5), human umbilical cord-derived mesenchymal stem cells; test: Cell proliferation by CCK-8 assay, 6 days, control cells (P5); type: cell-based; conditions: 160 μM
# Method: (§3) Example 4. Validation of gut microbiota-derived metabolite candidate for senescence control Control cells (P5) and replicative senescence-induced human umbilical cord-derived mesenchymal stem cells (P18) were treated with nervonic acid (160 μM) to analyze the effects of the gut microbiota-derived metabolite having the ability to control senescence of stem cells on the proliferation of stem cells and cell size.
# (§4) Specifically, control cells (p5) and replicative senescence-induced human umbilical cord-derived mesenchymal stem cells (P18) were exposed to nervonic acid (160 μM) in culture medium, followed by culture for 6 days while replacing the medium every 3 days, and cell proliferation was assessed using CCK-8 assay.
# [8] = test system: replicative senescence-induced human umbilical cord-derived mesenchymal stem cells (P18); test: Cell proliferation by CCK-8 assay, 6 days, replicative senescence model (P18); type: cell-based; conditions: 160 μM
# Method: as §3, §4
# [9] = test system: MyHC (myosin heavy chain), a marker of muscle regeneration, in muscle tissue; test: MyHC Western blotting in muscle tissue of muscle disease mouse model after injection of treated P18 cells; type: in vivo; conditions: P18 cells treated with 160 μM for 72 hours, injected via tail vein, mdx mouse, one week after injection
# Method: Specifically, the muscle disease mouse model used was C57BL/10ScSn-Dmdmdx/J (mdx mouse) , and C57BL/10J with the same genetic background was used as a control group. All experiments were conducted using mice aged 4 to 5 months. The cells to be injected were human umbilical cord-derived young mesenchymal stem cells (control group) (P5) and replicative senescence model (P18). More specifically, the replicative senescence model (P18) was treated with 160 μM nervonic acid or an equivalent amount of DMSO for 72 hours during culture at P18 and then dissociated as single cells with 0.25% Trypsin/EDTA (Gibco, MT, USA), and 5×10^4 cells per mouse were injected via the tail vein. One week after injection, both tibial muscles of the mouse model were harvested and fixed in 4% paraformaldehyde or frozen.
# Example 10. Comparative analysis of muscle regeneration promotion efficacy after injection of various human tissue-derived mesenchymal stem cells treated with nervonic acid into muscle disease mouse model A replicative senescence model (P18) was treated with nervonic acid (160 μM) and then injected into a muscle disease mouse model to assess the effect of nervonic acid treatment on the therapeutic efficacy of the replicative senescence model (P18) in terms of muscle regeneration in muscle tissue.
# In addition, the expression of MyHC was assessed at the protein level. […]
structure (smiles),measurement,setting,value
CCCCCCCC/C=C\CCCCCCCCCCCCCC(=O)O [nervonic acid],senescence control effect in secondary screening,"[1]; 13 candidates tested at 25-500 μM (7 concentrations), P18 vs P5",greatest effect on controlling senescence
same,concentration exhibiting senescence control efficacy in secondary screening,[1]; secondary screening,about 200 μM
same,"expression of CD11b, a mesenchymal stem cell-negative marker",[2],decreased
same,"expression of mesenchymal stem cell-positive markers CD44, CD73, CD90, CD105, and CD166",[2],restored
same,"cell viability, fold decrease compared to before treatment",[3],0.68±0.03 fold
same,progression of senescence (β-galactosidase staining) compared to control group (DMSO),[4],progression of senescence was significantly inhibited
same,change in cell viability,[5],no change in cell viability
same,progression of senescence (β-galactosidase staining) compared to control group (DMSO),[6],progression of senescence was significantly inhibited
same,cell proliferation,[7],no change in proliferation
same,cell proliferation,[8],proliferation was significantly reduced
same,MyHC protein expression level (Western blotting) compared to DMSO treatment group,[9],significantly increased
